Patent publication US4731486A, “Hydroformylation using low volatile phosphine ligands” (Union Carbide Corporation, priority 1986, dated 1988)
Structures can show the parent of a compound that is named as a salt.

What was measured:
[1] = Solubility of metal salt ligands in different aldehydes; format: physicochemical
[2] = Batch hydroformylation of propylene in stirred autoclave (Examples 1, 2, 11, 14, 19); settings: 200 ppm Rh, about 120 mole equivalents ligand, 100° C., 90 psia 1:1:1 H2:CO:C3H6; for Linear/Branched Aldehyde Mole Ratio: Texanol/Carbowax PEG-600: Li 100:0, K 9:1, Rb 8:1, Ca 20:1, Ba 7:1; for Reaction Rate (C4 aldehydes): Texanol/Carbowax PEG-600: Li 100:0, K 9:1, Rb 8:1, Cs 7:1, Ca 20:1, Ba 7:1, Sr 18:1
Experimental: A series of various rhodium complex catalyst precursor solutions consisting essentially of the solubilized reaction product of rhodium dicarbonyl acetylacetonate and various monosulfonated triphenylphosphine metal salt ligands were prepared and employed to hydroformylate propylene into C4 aldehydes in the following manner.
Each rhodium catalytic precursor solution so prepared was then employed to hydroformylate propylene in a magnetically stirred, 100 mL capacity, stainless steel autoclave which was attached to a gas manifold for introducing gases to the desired partial pressures. The autoclave was also equipped with a pressure calibrator for determining reaction pressure to ±0.01 psia. and a platinum resistance thermometer for determining reactor solution temperatures to ±0.10° C. The reactor was heated externally by two 300 watt heating bands. The reactor solution temperature was controlled by a platinum resistance sensor connected to an external proportional temperature controller for controlling the temperature of the external band heaters.
In each non-aqueous hydroformylation reaction, about 15 milliliters (about 14 grams) of the rhodium catalytic precursor solution so prepared was charged to the autoclave reactor under nitrogen and heated to the reaction temperature employed (as given in Table 1 below). The reactor was then vented down to 5 psig. and a premixed gas mixture of 1:1:1 carbon monoxide:hydrogen:propylene was introduced into the reactor via the gas manifold (partial pressures given in Table 1) and the propylene so hydroformylated.
A comparison of the catalytic activity of aqueous and non-aqueous solutions of monosulfonated triphenylphosphine sodium salt ligand promoted catalysts in hydroformylating various molecular weight alphe-olefins was determined as follows.
Both the aqueous and non-aqueous hydroformylation reactions were conducted under identical conditions with regard to temperature, rhodium and ligand concentration, hydrogen and carbon monoxide partial pressure and olefin concentration.

[3] = Continuous single pass hydroformylation of butene-1 (Examples 3, 4, 5, 7, 12)
Experimental: Continuous hydroformylation of butene-1 a monosulfonated triphenylphosphine metal salt ligand was conducted in the following manner.
The non-aqueous hydroformylation was conducted in a glass reactor operating in a continuous single pass butene-1 hydroformylation mode. The reactor consisted of a three-ounce pressure bottle submersed in an oil bath with a lass front for viewing. About 20-mL of a freshly prepared rhodium catalytic precursor solution was charged to the reactor with a syringe, after purging the system with nitrogen. […] After closing the reactor, the system was again purged with nitrogen and the oil bath was heated to furnish the desired hydroformylation reaction temperature. The hydroformylation reaction was conducted at a total gas pressure of about 160 psig., the partial pressures of hydrogen, carbon monoxide, and butene-1 being given in Table 3 below, the remainder being nitrogen and aldehyde product.
The flows of the feed gases (carbon monoxide, hydrogen, butene-1 and nitrogen) were controlled individually with mass flow meters and the feed gases dispersed into the precursor solution via microporous stainless steel spargers. The unreacted portion of the feed gases was stripped out with the product C5 aldehydes and the outlet gas analyzed over about 12 days of continuous operation.

[4] = Solubility of metal salt ligands in nonanal with added solubilizing agent; format: physicochemical; settings: 25° C., nonanal with 1:4 CARBOWAX TPEG-900/TERGITOL NP-9
[5] = Batch hydroformylation of dodecene-1 (Examples 13, 14, 18, 19); settings: heptanal, 100° C., 200 ppm Rh, 60 psia 2:1 H2:CO
[6] = Continuous hydroformylation of propylene (Example 8); settings: Texanol/PEG-600 8:1
[7] = Texanol/PEG-600 7:1, day 1.0, 101 °C, CO 18, H2 70, C4H8 11 psia
[8] = Texanol/PEG-600 7:1, day 1.8, 101 °C, CO 16, H2 62, C4H8 14 psia
[9] = Texanol/PEG-600 7:1, day 5.0, 101 °C, CO 12, H2 66, C4H8 19 psia
[10] = Texanol/PEG-600 7:1, day 5.9, 101 °C, CO 13, H2 66, C4H8 20 psia
[11] = Texanol/PEG-600 7:1, day 6.9, 101 °C, CO 14, H2 62, C4H8 22 psia
[12] = Texanol/PEG-600 7:1, day 7.0 (so in the source), […], CO 18, H2 62, C4H8 22 psia
[13] = Texanol/PEG-600 7:1, day 7.9, 101 °C, CO 16, H2 55, C4H8 24 psia
[14] = Texanol/PEG-600 7:1, day 9.0, […], CO 18, H2 60, C4H8 23 psia
[15] = Texanol/PEG-600 7:1, day 11.0, […], CO 19, H2 63, C4H8 21 psia
[16] = Texanol/PEG-600 7:1, day 11.7, […], CO 20, H2 63, C4H8 21 psia
[17] = Texanol/PEG-600 7:1, day 12.6, 103 °C, CO 20, H2 63, C4H8 22 psia
[18] = CARBOWAX PEG-600, two liquid organic layers
[19] = TERGITOL 15-S-7/Carbowax TPEG-990 (3:1)
[20] = TERGITOL 24-L-75N/CARBOWAX TPEG-990 (4:1)
[21] = Texanol, day 0.8, 101 °C, CO 18, H2 48, C4H8 19
[22] = Texanol, day 4.0, 101 °C, CO 17, H2 52, C4H8 49
[23] = Texanol, day 6.0, 101 °C, CO 17, H2 52, C4H8 50
[24] = Texanol, day 6.9, 101 °C, CO 19, H2 50, C4H8 41
[25] = Texanol, day 8.0, […], CO 18, H2 56, C4H8 38
[26] = Texanol, day 9.0, […], CO 18, H2 57, C4H8 38
[27] = Texanol, day 10.0, […], CO 18, H2 57, C4H8 38
[28] = Texanol, day 10.7, […], CO 18, H2 57, C4H8 38
[29] = Texanol, day 11.6, 103 °C, CO 18, H2 57, C4H8 38
[30] = day 1.0, 99 °C, CO 33, H2 53, C3H6 17 psia
[31] = day 2.0, 106 °C, CO 28, H2 54, C3H6 18 psia
[32] = day 3.0, […], CO 23, H2 55, C3H6 19 psia
[33] = day 4.0, […], CO 23, H2 55, C3H6 19 psia
[34] = day 4.9, 104 °C, CO 23, H2 55, C3H6 19 psia
[35] = day 5.8, 103 °C, CO 23, H2 55, C3H6 20 psia
[36] = day 6.7, 98 °C, CO 24, H2 56, C3H6 20 psia

## O=S(=O)(O)c1cccc(P(c2ccccc2)c2ccccc2)c1 [TPPMS-Ba, monosulfonated triphenylphosphine barium salt]
[1]; Butyraldehyde, 60 °C
  Metal Salt Solubility: 0.6 Wt. %
[1]; Heptanal, 80 °C
  Metal Salt Solubility: 0.2 Wt. %
[1]; Nonanal, 80 °C
  Metal Salt Solubility: 0.2 Wt. %
[1]; Propionaldehyde, 35 °C
  Metal Salt Solubility: 0.5 Wt. %
[1]; Tridecanal, 80 °C
  Metal Salt Solubility: 0.3 Wt. %
[1]; Valeraldehyde, 80 °C
  Metal Salt Solubility: 0.1 Wt. %
[2]
  Linear/Branched Aldehyde Mole Ratio: 4.1
  Reaction Rate (C4 aldehydes): 1.43 Gmoles/L/Hr
[3]; [7]
  Linear/Branched Aldehyde Mole Ratio: 6.91
  Rate (C5 aldehydes), daily average: 2.07 gmoles/L/Hr
[3]; [8]
  Linear/Branched Aldehyde Mole Ratio: 7.10
  Rate (C5 aldehydes), daily average: 2.10 gmoles/L/Hr
[3]; [9]
  Linear/Branched Aldehyde Mole Ratio: 7.12
  Rate (C5 aldehydes), daily average: 2.51 gmoles/L/Hr
[3]; [10]
  Linear/Branched Aldehyde Mole Ratio: 7.03
  Rate (C5 aldehydes), daily average: 2.52 gmoles/L/Hr
[3]; [11]
  Linear/Branched Aldehyde Mole Ratio: 6.32
  Rate (C5 aldehydes), daily average: 2.71 gmoles/L/Hr
[3]; [12]
  Linear/Branched Aldehyde Mole Ratio: 6.02
  Rate (C5 aldehydes), daily average: 2.60 gmoles/L/Hr
[3]; [13]
  Linear/Branched Aldehyde Mole Ratio: 6.16
  Rate (C5 aldehydes), daily average: 2.71 gmoles/L/Hr
[3]; [14]
  Linear/Branched Aldehyde Mole Ratio: 6.01
  Rate (C5 aldehydes), daily average: 2.73 gmoles/L/Hr
[3]; [15]
  Linear/Branched Aldehyde Mole Ratio: 6.20
  Rate (C5 aldehydes), daily average: 2.46 gmoles/L/Hr
[3]; [16]
  Linear/Branched Aldehyde Mole Ratio: 6.14
  Rate (C5 aldehydes), daily average: 2.37 gmoles/L/Hr
[3]; [17]
  Linear/Branched Aldehyde Mole Ratio: 5.85
  Rate (C5 aldehydes), daily average: 2.30 gmoles/L/Hr
[4]
  Metal Salt Solubility: 33 Wt. %
[5]; [18]
  Linear/Branched Aldehyde Mole Ratio: 10.0
  Reaction Rate: 1.22 G moles/L/hr
[5]; [19]
  Linear/Branched Aldehyde Mole Ratio: 9.4
  Reaction Rate: 0.45 G moles/L/hr
[5]; [20]
  Linear/Branched Aldehyde Mole Ratio: 10.9
  Reaction Rate: 0.76 G moles/L/hr

## O=S(=O)(O)c1cccc(P(c2ccccc2)c2ccccc2)c1 [TPPMS-Li, monosulfonated triphenylphosphine lithium salt]
[1]; Butyraldehyde, 60 °C, lithium salt
  Metal Salt Solubility: 0.5 Wt. %
[1]; Heptanal, 80 °C, lithium salt
  Metal Salt Solubility: < 0.7 Wt. %
[1]; Nonanal, 80 °C, lithium salt
  Metal Salt Solubility: < 0.5 Wt. %
[1]; Propionaldehyde, 35 °C, lithium salt
  Metal Salt Solubility: 8.8 Wt. %
[1]; Tridecanal, 80 °C, lithium salt
  Metal Salt Solubility: < 0.5 Wt. %
[1]; Valeraldehyde, 80 °C, lithium salt
  Metal Salt Solubility: < 0.5 Wt. %
[2]; lithium salt
  Linear/Branched Aldehyde Mole Ratio: 6.3
  Reaction Rate (C4 aldehydes): 0.35 Gmoles/L/Hr
[3]; [21]
  Linear/Branched Aldehyde Mole Ratio: 30.34
  Rate (C5 aldehydes), daily average: 1.02 gmoles/L/Hr
[3]; [22]
  Linear/Branched Aldehyde Mole Ratio: 11.20
  Rate (C5 aldehydes), daily average: 1.25 gmoles/L/Hr
[3]; Texanol, day 4.8, 101 °C, CO 17, H2 52, C4H8 50
  Rate (C5 aldehydes), daily average: 1.19 gmoles/L/Hr
[3]; [23]
  Linear/Branched Aldehyde Mole Ratio: 2.98
  Rate (C5 aldehydes), daily average: 1.27 gmoles/L/Hr
[3]; [24]
  Linear/Branched Aldehyde Mole Ratio: 31.75
  Rate (C5 aldehydes), daily average: 1.28 gmoles/L/Hr
[3]; [25]
  Linear/Branched Aldehyde Mole Ratio: 40.30
  Rate (C5 aldehydes), daily average: 1.28 gmoles/L/Hr
[3]; [26]
  Linear/Branched Aldehyde Mole Ratio: 28.90
  Rate (C5 aldehydes), daily average: 1.30 gmoles/L/Hr
[3]; [27]
  Linear/Branched Aldehyde Mole Ratio: 29.63
  Rate (C5 aldehydes), daily average: 1.27 gmoles/L/Hr
[3]; [28]
  Linear/Branched Aldehyde Mole Ratio: 37.18
  Rate (C5 aldehydes), daily average: 1.27 gmoles/L/Hr
[3]; [29]
  Linear/Branched Aldehyde Mole Ratio: 30.18
  Rate (C5 aldehydes), daily average: 1.21 gmoles/L/Hr
[4]; lithium salt
  Metal Salt Solubility: 12 Wt. %

## O=S(=O)(O)c1cccc(P(c2ccccc2)c2ccccc2)c1 [TPPMS-Rb, monosulfonated triphenylphosphine rubidium salt]
[1]; Butyraldehyde, 60 °C
  Metal Salt Solubility: 1.4 Wt. %
[1]; Heptanal, 80 °C
  Metal Salt Solubility: 3.8 Wt. %
[1]; Nonanal, 80 °C
  Metal Salt Solubility: 0.9 Wt. %
[1]; Propionaldehyde, 35 °C
  Metal Salt Solubility: 6.6 Wt. %
[1]; Tridecanal, 80 °C
  Metal Salt Solubility: 0.5 Wt. %
[1]; Valeraldehyde, 80 °C
  Metal Salt Solubility: 3.3 Wt. %
[2]
  Linear/Branched Aldehyde Mole Ratio: 5.6
  Reaction Rate (C4 aldehydes): 0.70 Gmoles/L/Hr
[6]; [30]
  Linear/Branched Aldehyde Mole Ratio: 5.15
  Rate (C4 aldehydes), daily average: 1.01 gmoles/L/Hr
[6]; [31]
  Linear/Branched Aldehyde Mole Ratio: 6.19
  Rate (C4 aldehydes), daily average: 1.24 gmoles/L/Hr
[6]; [32]
  Linear/Branched Aldehyde Mole Ratio: 5.86
  Rate (C4 aldehydes), daily average: 0.68 gmoles/L/Hr
[6]; [33]
  Linear/Branched Aldehyde Mole Ratio: 6.04
  Rate (C4 aldehydes), daily average: 0.58 gmoles/L/Hr
[6]; [34]
  Linear/Branched Aldehyde Mole Ratio: 6.12
  Rate (C4 aldehydes), daily average: 0.58 gmoles/L/Hr
[6]; [35]
  Linear/Branched Aldehyde Mole Ratio: 6.45
  Rate (C4 aldehydes), daily average: 0.58 gmoles/L/Hr
[6]; [36]
  Linear/Branched Aldehyde Mole Ratio: 6.60
  Rate (C4 aldehydes), daily average: 0.41 gmoles/L/Hr
[4]
  Metal Salt Solubility: 25 Wt. %
